Source: patent US9079866B2, “Flap modulators” (JANSSEN PHARMACEUTICA NV, priority 2013, dated 2015)
Structures can show the parent of a compound that is named as a salt. Where two headings read alike, the source gives them in different places.

Tests used:
human FLAP = human FLAP (Homo sapiens (Human), UniProt P20292); assay: FLAP binding assay (HTRF format); conditions: HTRF format
Method in brief: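 Read-out is the HTRF ratio. Each reported figure averages two assay plates on which samples were tested in duplicate.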

[1] = tested on: leukotriene pathway in human whole blood (LTB4 levels); assay: Human whole blood assay (A23187-stimulated LTB4); type: cell-based; conditions: read-out: LTB4 IC50 1:1
Method in brief: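 Heparinised human whole blood, diluted 1:1 in RPMI, was pre-incubated with test compounds for 15 min at 37° Celsius, then stimulated with A23187 (7 μg/mL) for 30 min at 37° Celsius. Plasma LTB4 was measured by immunoassay kit; IC50 from 4-parameter fit; single replicate, at least one healthy donor.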

[2] = Homo sapiens, human whole blood diluted 1:1, A23187-stimulated
[3] = human FLAP wild type, average of two plates, duplicates
[4] = Homo sapiens, human whole blood diluted 1:1 in RPMI, A23187-stimulated LTB4

Sequence of human FLAP (P20292 whole entry): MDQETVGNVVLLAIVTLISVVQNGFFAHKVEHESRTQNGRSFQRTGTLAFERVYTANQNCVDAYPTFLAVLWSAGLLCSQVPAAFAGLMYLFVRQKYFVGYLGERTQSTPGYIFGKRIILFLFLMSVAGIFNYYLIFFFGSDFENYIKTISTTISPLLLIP

| Compound | Ki (human FLAP; wild type FLAP) [nM] | IC50 [1, 2] [nM] | Ki (human FLAP; [3]) [nM] | IC50 [1, 4] [nM] | IC50 ([1]; human whole blood diluted 1:1 in RPMI, A23187-stimulated LTB4) [nM] |
| --- | --- | --- | --- | --- | --- |
| COc1c(-c2ccccc2)ccc(-c2cnc(N)cn2)c1F [Example 834, 5-(3-Fluoro-2-methoxybiphenyl-4-yl)pyrazin-2-amine] | 48.9 | 1090 | – | – | – |
| C[C@@H](O)CNS(=O)(=O)c1ccccc1-c1ccc(-c2cnc(N)nc2)nc1 [Example 689, 2-[6-(2-Aminopyrimidin-5-yl)pyridin-3-yl]-N-[(2R)-2-hydroxypropyl]benzenesulfonamide] | 485 | 787 | – | – | – |
| CN([C@H]1CCCNC1)S(=O)(=O)c1ccccc1-c1ccc(-c2cnc(N)nc2)c(F)c1 [Example 256, 4′-(2-Aminopyrimidin-5-yl)-3′-fluoro-N-methyl-N-[(3S)-piperidin-3-yl]biphenyl-2-sulfonamide] | – | – | 35 | 73 | – |
| N#Cc1ncc(-c2ccccc2-c2ccc(-c3cnc(N)cn3)c(F)c2)cn1 [Example 849, 5-[4′-(5-Aminopyrazin-2-yl)-3′-fluorobiphenyl-2-yl]pyrimidine-2-carbonitrile] | 35.6 | > 1000 | – | – | – |
| C[C@@H](NC(=O)c1ccccc1-c1ccc(-c2cnc(N)cn2)c(F)c1)C(F)(F)F [Example 511, 4′-(5-Aminopyrazin-2-yl)-3′-fluoro-N-[(1R)-2,2,2-trifluoro-1-methylethyl]biphenyl-2-carboxamide] | 213 | 323 | – | – | – |
| Nc1ncc(-c2ccc(-c3ccccc3S(=O)(=O)N3CCC(F)(F)CC3)cn2)cn1 [Example 682, 5-(5-{2-[(4,4-Difluoropiperidin-1-yl)sulfonyl]phenyl}pyridin-2-yl)pyrimidin-2-amine trifluoroacetic acid salt] | 224 | 264 | – | – | – |
| CC(C)(CO)CNS(=O)(=O)c1ccccc1-c1ccc(-c2ncc(N)nc2C#N)c(F)c1 [Example 714, 4′-(5-Amino-3-cyanopyrazin-2-yl)-3′-fluoro-N-(3-hydroxy-2,2-dimethylpropyl)biphenyl-2-sulfonamide] | 2.4 | 33.1 | – | – | – |
| CC(C)(C)NC(=O)c1cc(F)ccc1-c1ccc(-c2cnc(N)cn2)c(F)c1 [Example 502, 4′-(5-Aminopyrazin-2-yl)-N-tert-butyl-3′,4-difluorobiphenyl-2-carboxamide] | 83 | 363 | – | – | – |
| COc1cccc2nc(-c3ccc(-c4ccccc4S(=O)(=O)NC(C)(C)C)cc3F)cn12 [Example 588, N-tert-Butyl-3′-fluoro-4′-(5-methoxyimidazo[1,2-a]pyridin-2-yl)biphenyl-2-sulfonamide] | 133 | > 10000 | – | – | – |
| CC(C)(C#N)S(=O)(=O)c1ccccc1-c1ccc(-c2cnc(N)cn2)c(F)c1 [Example 735, 2-{[4′-(5-Aminopyrazin-2-yl)-3′-fluorobiphenyl-2-yl]sulfonyl}-2-methylpropanenitrile] | 32 | 272 | – | – | – |
| Nc1cnc(-c2ccc(-c3cccnc3S(=O)(=O)C3CCC3)cc2F)cn1 [Example 806, 5-(4-(2-(Cyclobutylsulfonyl)pyridin-3-yl)-2-fluorophenyl)pyrazin-2-amine hydrochloride] | 1.8 | 48.4 | – | – | – |
| Nc1ccc(-c2ccc(-c3ccccc3S(=O)(=O)NC3CCCCC3)cc2F)cn1 [Example 346, 4′-(6-Aminopyridin-3-yl)-N-cyclohexyl-3′-fluoro-[1,1′-biphenyl]-2-sulfonamide] | – | – | 5 | 95 | – |
| CC(C)[C@@H](CO)NS(=O)(=O)c1ccccc1-c1ccc(-c2cnc(N)cn2)c(F)c1 [Example 148, (S)-4′-(5-Aminopyrazin-2-yl)-3′-fluoro-N-(1-hydroxy-3-methylbutan-2-yl)-[1,1′-biphenyl]-2-sulfonamide] | – | – | 2 | 8 | – |
| Nc1cnc(-c2ccc(-c3ccc(C(F)(F)F)cc3C3=CCNCC3)cc2F)cn1 [Example 852, 5-[3-Fluoro-2′-(1,2,3,6-tetrahydropyridin-4-yl)-4′-(trifluoromethyl)biphenyl-4-yl]pyrazin-2-amine] | 118 | 1350 | – | – | – |
| Nc1cnc(-c2ccc(-c3ccccc3C(=O)N3CCC[C@@H](O)C3)cc2F)cn1 [Example 762, (3R)-1-{[4′-(5-Aminopyrazin-2-yl)-3′-fluorobiphenyl-2-yl]carbonyl}piperidin-3-ol] | 159 | 442 | – | – | – |
| CC[C@@H](CO)NS(=O)(=O)c1ccccc1-c1ccc(-c2cnc(N)cn2)c(F)c1 [Example 153, (S)-4′-(5-Aminopyrazin-2-yl)-3′-fluoro-N-(1-hydroxybutan-2-yl)-[1,1′-biphenyl]-2-sulfonamide] | – | – | 3 | 7 | – |
| CC(C)(C)NS(=O)(=O)c1ccccc1-c1ccc(-c2cnc3[nH]cc(CO)c3c2)c(F)c1 [Example 455, N-tert-Butyl-3′-fluoro-4′-[3-(hydroxymethyl)-1H-pyrrolo[2,3-b]pyridin-5-yl]biphenyl-2-sulfonamide] | 1 | 94 | – | – | – |

| Compound | Ki (human FLAP; wild type FLAP) [nM] | IC50 [1, 2] [nM] | Ki (human FLAP; [3]) [nM] | IC50 [1, 4] [nM] | IC50 ([1]; human whole blood diluted 1:1 in RPMI, A23187-stimulated LTB4) [nM] |
| --- | --- | --- | --- | --- | --- |
| Nc1cnc(-c2ccc(-c3cccnc3S(=O)(=O)CC3CCOCC3)cc2F)cn1 [Example 824, 5-(2-Fluoro-4-(2-(((tetrahydro-2H-pyran-4-yl)methyl)sulfonyl)pyridine-3-yl)pyrazin-2-amine formic acid salt] | 10.3 | 18 | – | – | – |
| C[C@@H](NS(=O)(=O)c1ccccc1-c1ccc(-c2cnc(N)cn2)c(F)c1)C(F)(F)F [Example 20, (S)-4′-(5-Aminopyrazin-2-yl)-3′-fluoro-N-[(1S)-2,2,2-trifluoro-1-methylethyl]biphenyl-2-sulfonamide] | – | – | 1 | – | 9 |
| Cc1ccnc(Oc2ccccc2-c2ccc(-c3cnc(N)nc3)c(F)c2)n1 [Example 546, 5-{3-Fluoro-2′-[(4-methylpyrimidin-2-yl)oxy]biphenyl-4-yl}pyrimidin-2-amine] | 148 | 253 | – | – | – |
| COCCCS(=O)(=O)c1ncccc1-c1ccc(-c2cnc(N)cn2)c(F)c1 [Example 818, 5-(2-Fluoro-4-(2-((3-methoxypropyl)sulfonyl)pyridine-3-yl)phenyl)pyrazin-2-amine hydrogen chloride salt] | 27.2 | 51.6 | – | – | – |
| C[C@@H](CO)NS(=O)(=O)c1ccccc1-c1ccc(-c2cnc3c(c2)OCCN3)c(F)c1 [Example 388, 4′-(3,4-Dihydro-2H-pyrido[3,2-b][1,4]oxazin-7-yl)-3′-fluoro-N-[(1S)-2-hydroxy-1-methylethyl]biphenyl-2-sulfonamide] | – | – | 2 | 37 | – |
| COc1ccccc1-c1ccc(-c2cnc(N)cn2)c(F)c1 [Example 473, 5-(3-Fluoro-2′-methoxybiphenyl-4-yl)pyrazin-2-amine] | 113 | 1410 | – | – | – |
| Nc1cnc(-c2ccc(-c3ccc(C(F)(F)F)cc3Oc3ccnc(N)n3)cc2F)cn1 [Example 555, 4-{[4′-(5-Aminopyrazin-2-yl)-3′-fluoro-4-(trifluoromethyl)biphenyl-2-yl]oxy}pyrimidin-2-amine] | 2 | 24 | – | – | – |
| Nc1cnc(-c2ccc(-c3ccccc3S(=O)(=O)N(CCO)CCO)cc2F)cn1 [Example 138, 4′-(5-Aminopyrazin-2-yl)-3′-fluoro-N,N-bis(2-hydroxyethyl)biphenyl-2-sulfonamide] | – | – | 11 | 174 | – |
| Nc1cnc(-c2ccc(-c3ccccc3Oc3cc(N)ncn3)cc2F)cn1 [Example 535, 6-{[4′-(5-Aminopyrazin-2-yl)-3′-fluorobiphenyl-2-yl]oxy}pyrimidin-4-amine] | 1 | 17 | – | – | – |
| N#CCCNS(=O)(=O)c1ccccc1-c1ccc(-c2cnc(N)nc2)c(F)c1 [Example 250, 4′-(2-Aminopyrimidin-5-yl)-N-(2-cyanoethyl)-3′-fluorobiphenyl-2-sulfonamide] | – | – | 38 | 77 | – |
| Nc1cnc(-c2ccc(-c3ccccc3S(=O)(=O)N3CCC(CCO)CC3)cc2F)cn1 [Example 69, 2-(1-{[4′-(5-Aminopyrazin-2-yl)-3′-fluorobiphenyl-2-yl]sulfonyl}piperidin-4-yl)ethanol] | – | – | 1 | 8 | – |
| CS(=O)(=O)c1ccccc1-c1ccc(-c2cnc(N)cn2)c(F)c1F [Example 461, 5-[2,3-Difluoro-2′-(methylsulfonyl)biphenyl-4-yl]pyrazin-2-amine] | 41 | 209 | – | – | – |
| Nc1ncc(-c2ccc(-c3ccccc3Oc3cc(N4CCC4)ncn3)cc2F)cn1 [Example 540, 5-{2′-[(6-Azetidin-1-ylpyrimidin-4-yl)oxy]-3-fluorobiphenyl-4-yl}pyrimidin-2-amine] | 16 | 85 | – | – | – |
| CC(C)CS(=O)(=O)c1ccccc1-c1ccc(-c2cnc(N)cn2)c(F)c1 [Example 193, 5-{3-Fluoro-2′-[(2-methylpropyl)sulfonyl]biphenyl-4-yl}pyrazin-2-amine] | – | – | 26 | 144 | – |
| Nc1cnc(Sc2ccccc2-c2ccc(-c3cnc(N)nc3)c(F)c2)nc1 [Example 329, 5-{2′-[(5-Aminopyrimidin-2-yl)sulfanyl]-3-fluorobiphenyl-4-yl}pyrimidin-2-amine formate salt] | – | – | 12 | 66 | – |
| CC[C@H](C)[C@@H](CO)NS(=O)(=O)c1ccccc1-c1ccc(-c2cnc(N)cn2)c(F)c1 [Example 84, 4′-(5-Aminopyrazin-2-yl)-3′-fluoro-N-[(1S,2S)-1-(hydroxymethyl)-2-methylbutyl]biphenyl-2-sulfonamide] | – | – | 3 | 97 | – |
| CCS(=O)(=O)Nc1ccccc1-c1ccc(-c2cnc3[nH]ccc3n2)c(F)c1 [Example 491, N-[3′-Fluoro-4′-(5H-pyrrolo[2,3-b]pyrazin-2-yl)biphenyl-2-yl]ethanesulfonamide] | 15 | 215 | – | – | – |
